Experimental findings from ChEMBL document CHEMBL2321833, “Design and optimization of selective protein kinase C θ (PKCθ) inhibitors for the treatment of autoimmune diseases” (J Med Chem, 2013) are described below.

Data set [1] deals with Blood. Description: Inhibition of PKC theta in human whole blood assessed as IL-2 level after 1 hr by ELISA. It is filed as functional, tissue-based. A general note: In an ELISA, binding on a coated surface is turned into a signal by an enzyme label.
Data set [2] deals with T1, Protein kinase C epsilon type (Homo sapiens, UniProt Q02156).
T1 sequence (Q02156 whole entry): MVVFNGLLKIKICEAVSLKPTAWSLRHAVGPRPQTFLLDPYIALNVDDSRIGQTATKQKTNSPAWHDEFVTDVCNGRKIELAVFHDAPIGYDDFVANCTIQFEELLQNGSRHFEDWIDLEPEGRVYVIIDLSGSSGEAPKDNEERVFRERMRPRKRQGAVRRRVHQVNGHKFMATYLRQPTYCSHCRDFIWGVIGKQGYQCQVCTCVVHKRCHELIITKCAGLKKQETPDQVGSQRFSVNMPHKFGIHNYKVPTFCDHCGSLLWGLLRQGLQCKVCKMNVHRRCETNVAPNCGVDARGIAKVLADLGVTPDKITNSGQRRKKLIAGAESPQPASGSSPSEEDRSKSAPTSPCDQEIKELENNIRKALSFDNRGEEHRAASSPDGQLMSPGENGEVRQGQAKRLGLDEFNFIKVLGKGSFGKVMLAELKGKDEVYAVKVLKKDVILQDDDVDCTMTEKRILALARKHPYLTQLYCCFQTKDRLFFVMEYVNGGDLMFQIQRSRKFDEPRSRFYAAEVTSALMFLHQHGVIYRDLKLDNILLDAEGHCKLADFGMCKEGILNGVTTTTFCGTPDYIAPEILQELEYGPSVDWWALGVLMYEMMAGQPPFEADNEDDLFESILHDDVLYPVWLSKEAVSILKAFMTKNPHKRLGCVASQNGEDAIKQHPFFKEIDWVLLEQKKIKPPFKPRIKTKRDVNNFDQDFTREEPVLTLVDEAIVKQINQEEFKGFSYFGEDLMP
Nature of the data set: Inhibition of PKC epsilon (unknown origin).

Data set [3] addresses Protein kinase C delta type (Homo sapiens, UniProt Q05655). Description: Inhibition of PKC delta (unknown origin) using ERMRPRKRQGSVRRRV as substrate after 15 mins by spectrophotometry in presence of ATP.
The target of data set [4] is Protein kinase C eta type (Homo sapiens, UniProt P24723). Nature of the data set: Inhibition of PKC eta (unknown origin).
Sequence of Protein kinase C eta type (P24723 whole entry): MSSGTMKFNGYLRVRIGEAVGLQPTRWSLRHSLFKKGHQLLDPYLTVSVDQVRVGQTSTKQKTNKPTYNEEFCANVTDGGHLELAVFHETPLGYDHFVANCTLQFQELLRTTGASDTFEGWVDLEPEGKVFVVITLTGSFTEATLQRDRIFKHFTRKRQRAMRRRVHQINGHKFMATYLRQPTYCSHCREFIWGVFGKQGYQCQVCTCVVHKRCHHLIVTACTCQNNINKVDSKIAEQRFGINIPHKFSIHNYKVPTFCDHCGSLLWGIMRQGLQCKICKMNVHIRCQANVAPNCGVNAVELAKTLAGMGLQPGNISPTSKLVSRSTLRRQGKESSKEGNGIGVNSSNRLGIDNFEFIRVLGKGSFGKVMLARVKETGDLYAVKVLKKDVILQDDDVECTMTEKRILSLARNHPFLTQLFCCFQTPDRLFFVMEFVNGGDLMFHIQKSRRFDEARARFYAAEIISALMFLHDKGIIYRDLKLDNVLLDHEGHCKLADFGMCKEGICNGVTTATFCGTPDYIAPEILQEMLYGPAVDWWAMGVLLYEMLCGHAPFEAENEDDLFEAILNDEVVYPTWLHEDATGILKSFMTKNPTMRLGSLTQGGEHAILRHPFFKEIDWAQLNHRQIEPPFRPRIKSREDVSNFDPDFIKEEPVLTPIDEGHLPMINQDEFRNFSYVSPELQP
The target in data set [5] is T2, Tyrosine-protein kinase ZAP-70 (Homo sapiens, UniProt P43403).
T2 sequence (P43403 whole entry): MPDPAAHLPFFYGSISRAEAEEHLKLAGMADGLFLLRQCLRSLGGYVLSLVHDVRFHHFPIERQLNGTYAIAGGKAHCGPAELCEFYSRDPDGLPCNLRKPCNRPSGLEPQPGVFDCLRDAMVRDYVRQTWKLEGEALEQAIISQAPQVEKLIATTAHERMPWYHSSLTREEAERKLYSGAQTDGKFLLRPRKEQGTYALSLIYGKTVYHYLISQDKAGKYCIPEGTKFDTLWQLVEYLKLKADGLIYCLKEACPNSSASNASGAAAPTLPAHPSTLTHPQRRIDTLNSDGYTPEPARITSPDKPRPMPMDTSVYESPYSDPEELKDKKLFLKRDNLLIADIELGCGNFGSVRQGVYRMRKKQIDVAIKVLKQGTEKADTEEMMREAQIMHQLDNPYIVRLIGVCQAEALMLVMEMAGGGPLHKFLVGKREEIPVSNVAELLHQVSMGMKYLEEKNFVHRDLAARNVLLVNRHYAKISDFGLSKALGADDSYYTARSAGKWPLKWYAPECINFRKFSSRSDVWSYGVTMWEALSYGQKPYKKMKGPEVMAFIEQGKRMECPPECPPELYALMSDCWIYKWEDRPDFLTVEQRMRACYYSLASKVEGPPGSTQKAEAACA
Description: Inhibition of Zap70 (unknown origin).

Data set [6] can be described thus: Half life in rat at 3 mg/kg, iv and 10 mg/kg, po. It is filed as ADME, organism-based. The note with it: in vivo.
In data set [7] the target is Mitogen-activated protein kinase 3 (Homo sapiens, UniProt P27361). Description: Inhibition of Erk-1 (unknown origin).
Sequence of Mitogen-activated protein kinase 3 (P27361 whole entry): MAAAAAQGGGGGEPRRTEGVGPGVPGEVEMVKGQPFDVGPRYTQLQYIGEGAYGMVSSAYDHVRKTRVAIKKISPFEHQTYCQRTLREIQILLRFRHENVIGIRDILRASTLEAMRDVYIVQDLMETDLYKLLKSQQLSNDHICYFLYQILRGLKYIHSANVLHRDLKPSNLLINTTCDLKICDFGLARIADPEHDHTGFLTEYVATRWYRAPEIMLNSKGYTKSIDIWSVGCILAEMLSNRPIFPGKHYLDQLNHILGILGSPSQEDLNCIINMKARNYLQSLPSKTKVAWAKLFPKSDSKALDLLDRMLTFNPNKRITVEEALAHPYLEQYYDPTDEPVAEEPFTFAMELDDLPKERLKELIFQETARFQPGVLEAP

Sequence of Protein kinase C delta type (Q05655 whole entry): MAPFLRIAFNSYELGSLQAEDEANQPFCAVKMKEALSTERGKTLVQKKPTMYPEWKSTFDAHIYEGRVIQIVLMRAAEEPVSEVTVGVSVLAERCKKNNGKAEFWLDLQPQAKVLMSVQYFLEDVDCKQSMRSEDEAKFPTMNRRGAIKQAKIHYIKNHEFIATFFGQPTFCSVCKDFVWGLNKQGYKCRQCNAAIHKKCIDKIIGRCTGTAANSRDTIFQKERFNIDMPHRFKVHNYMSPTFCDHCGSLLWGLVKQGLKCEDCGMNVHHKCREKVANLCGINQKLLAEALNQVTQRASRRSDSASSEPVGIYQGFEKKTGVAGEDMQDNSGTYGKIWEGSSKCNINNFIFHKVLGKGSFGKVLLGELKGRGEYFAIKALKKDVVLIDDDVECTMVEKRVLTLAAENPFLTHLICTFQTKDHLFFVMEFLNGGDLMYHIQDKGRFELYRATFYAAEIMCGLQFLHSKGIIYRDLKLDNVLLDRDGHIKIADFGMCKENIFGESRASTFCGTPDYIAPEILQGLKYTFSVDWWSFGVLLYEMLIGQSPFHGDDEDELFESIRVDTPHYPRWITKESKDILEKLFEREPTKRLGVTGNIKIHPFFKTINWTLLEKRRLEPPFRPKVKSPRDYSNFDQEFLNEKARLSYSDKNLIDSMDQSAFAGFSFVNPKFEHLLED

Turning to `CC(C)[C@@](C)(O)[C@@H]1CN(c2nc(-c3n[nH]c4ncccc34)c(F)cc2Cl)CCN1`, the IC50 in data set [1] is 0.07 µM. Further, the Ki in data set [2] was 0.001 µM; in data set [3], 0.016 µM; in data set [4], 0.0035 µM; in data set [5], more than 1 µM; in data set [7], more than 1 µM. Moreover, the half-life in data set [6] was 4.7 h.

By IC50 is commonly meant the concentration needed to halve the response being measured. A word on the Ki: it is the dissociation constant of the complex between target and ligand, obtained from inhibition or displacement. Broadly, the half-life is the time in which the quantity being followed falls by half. Read a high half-life as slow loss.
